These results are taken from patent US11472799B2, “Serine threonine kinase (AKT) degradation / disruption compounds and methods of use” (Icahn School of Medicine at Mount Sinai, priority 2018, dated 2022).

For this assay, the system named is AKT. In words: Western blot of AKT protein levels and downstream signaling in BT474 cells. In kind it is cell-based, human. Conditions: Western blot (FIGS. 1, 3, 4). Here is the method: PC-3, U87MG, HCC1143, MDA-MB-231, MDA-MB-468, BT474 and MCF-7 cell lines were purchased from ATCC. Cell lines were regularly tested in the lab for mycoplasma. All cells were cultured at 37° C. and 5% CO2. PC-3, U87MG, MDA-MB-231, MCF-7 and BT474 cells were cultured in 1×DMEM (Corning, 10-013-CV) with 10% fetal bovine serum (Atlanta Biologicals S11150) and 1× Penicillin/Streptomycin. HCC1143 cells were cultured in RPMI (Corning, 10-040-CV) medium with 10% fetal bovine serum (Atlanta Biologicals S11150) and 1× Penicillin/Streptomycin. Cells were split using 0.05% or 0.25% trypsin (Corning 25-051-Cl or 25-053-Cl, respectively) before they reached full confluence and media was changed every 3-4 days. Cells were treated with compounds individually at different concentrations for 24 hrs. Cells were treated with DMSO, VHL, or PML alone as controls.
Cells were lysed in 2× sample buffer (125 mM Tris-HCl at pH 6.8, 10% βME, 2% SDS, 20% glycerol, 0.05% Bromophenol Blue, 8 M urea). Protein lysates were loaded into 4-12% Bis-Tris gels and resolved by electrophoresis. Samples were then blotted on PVDF membrane (Millipore IPVH00010) using the wet transfer technique (Invitrogen). Membranes were blocked in 5% milk-TBST for 1 hour, washed in TBST for 10 min, and incubated in primary antibody in 5% milk-TBST or 5% BSA-TBST at 4° C. for 16 h. Membranes were rinsed (3×6 min) in TBST and incubated in horseradish peroxidase-conjugated secondary antibodies in 5% milk-TBST for 1 hour and rinsed again in TBST (3×6 min). Membranes were visualized using the chemiluminescence system (Thermo 34080, 37075) on autoradiography film (Denville E3018). Primary Antibodies: R-actin (Sigma A5316), p-AKT (Ser473 CST-9721), total AKT (CST-9272), p-S6 (Ser240/244, CST-5364), p-PRAS40 (Thr246, CST-2997). Secondary Antibodies: Mouse (Thermo 31432), Rabbit (Thermo 31460).

Take `Cc1ncsc1-c1ccc(CNC(=O)[C@@H]2C[C@@H](O)CN2C(=O)[C@@H](NC(=O)CCCCCCC(=O)N2CCN(CC[C@H](NC(=O)C3(N)CCN(c4ncnc5[nH]ccc45)CC3)c3ccc(Cl)cc3)CC2)C(C)(C)C)cc1` [XF050-18, 4-amino-N-((S)-1-(4-chlorophenyl)-3-(4-(8-(((S)-1-((2S,4R)-4-hydroxy-2-((4-(4-methylthiazol-5-yl)benzyl)carbamoyl)pyrrolidin-1-yl)-3,3-dimethyl-1-oxobutan-2-yl)amino)-8-oxooctanoyl)piperazin-1-yl)propyl)-1-(7H-pyrrolo[2,3-d]pyrimidin-4-yl)piperidine-4-carboxamide]: the “suppression of AKT protein level and AKT activity” value (shortened to “suppression”) is “effective in suppressing both AKT protein level and AKT activity”.

On to `NC1(C(=O)N[C@@H](CCN2CCN(C(=O)CCOCCOCCNc3cccc4c3C(=O)N(C3CCC(=O)NC3=O)C4=O)CC2)c2ccc(Cl)cc2)CCN(c2ncnc3[nH]ccc23)CC1` (stereo partly drawn) [XF050-30, 4-amino-N-((1S)-1-(4-chlorophenyl)-3-(4-(3-(2-(2-((2-(2,6-dioxopiperidin-3-yl)-1,3-dioxoisoindolin-4-yl)amino)ethoxy)ethoxy)propanoyl)piperazin-1-yl)propyl)-1-(7H-pyrrolo[2,3-d]pyrimidin-4-yl)piperidine-4-carboxamide], for which the “suppression” value is “effective in suppressing both AKT protein level and AKT activity”.

With `NC1(C(=O)N[C@@H](CCN2CCN(C(=O)CCOCCOCCOCCOCCNc3cccc4c3C(=O)N(C3CCC(=O)NC3=O)C4=O)CC2)c2ccc(Cl)cc2)CCN(c2ncnc3[nH]ccc23)CC1` (stereo partly drawn) [XF050-32, 4-amino-N-((1S)-1-(4-chlorophenyl)-3-(4-(1-((2-(2,6-dioxopiperidin-3-yl)-1,3-dioxoisoindolin-4-yl)amino)-3,6,9,12-tetraoxapentadecan-15-oyl)piperazin-1-yl)propyl)-1-(7H-pyrrolo[2,3-d]pyrimidin-4-yl)piperidine-4-carboxamide], the “suppression” value is “effective in suppressing both AKT protein level and AKT activity”.

Take `Cc1ncsc1-c1ccc(CNC(=O)[C@@H]2C[C@@H](O)CN2C(=O)[C@@H](NC(=O)CCCCCCCC(=O)N2CCN(CC[C@H](NC(=O)C3(N)CCN(c4ncnc5[nH]ccc45)CC3)c3ccc(Cl)cc3)CC2)C(C)(C)C)cc1` [XF050-19, 4-amino-N-((S)-1-(4-chlorophenyl)-3-(4-(9-(((S)-1-((2S,4R)-4-hydroxy-2-((4-(4-methylthiazol-5-yl)benzyl)carbamoyl)pyrrolidin-1-yl)-3,3-dimethyl-1-oxobutan-2-yl)amino)-9-oxononanoyl)piperazin-1-yl)propyl)-1-(7H-pyrrolo[2,3-d]pyrimidin-4-yl)piperidine-4-carboxamide]: the “suppression” value is “effective in suppressing both AKT protein level and AKT activity”.

With `Cc1ncsc1-c1ccc([C@H](C)NC(=O)[C@@H]2C[C@@H](O)CN2C(=O)[C@@H](NC(=O)CCCCCCCCCC(=O)N2CCN(CC[C@H](NC(=O)C3(N)CCN(c4ncnc5[nH]ccc45)CC3)c3ccc(Cl)cc3)CC2)C(C)(C)C)cc1` [XF050-167, 4-amino-N-((S)-1-(4-chlorophenyl)-3-(4-(11-(((S)-1-((2S,4R)-4-hydroxy-2-(((S)-1-(4-(4-methylthiazol-5-yl)phenyl)ethyl)carbamoyl)pyrrolidin-1-yl)-3,3-dimethyl-1-oxobutan-2-yl)amino)-11-oxoundecanoyl)piperazin-1-yl)propyl)-1-(7H-pyrrolo[2,3-d]pyrimidin-4-yl)piperidine-4-carboxamide], the “suppression” value is “effective in suppressing both AKT protein level and AKT activity”.

With `C[C@@H]1C[C@@H](O)c2ncnc(N3CCN(C(=O)[C@H](CNCCC(=O)NCCOCCOCCNc4cccc5c4C(=O)N(C4CCC(=O)NC4=O)C5=O)c4ccc(Cl)cc4)CC3)c21` (stereo partly drawn) [XF048-7, 3-(((S)-2-(4-chlorophenyl)-3-(4-((5R,7R)-7-hydroxy-5-methyl-6,7-dihydro-5H-cyclopenta[d]pyrimidin-4-yl)piperazin-1-yl)-3-oxopropyl)amino)-N-(2-(2-(2-((2-(2,6-dioxopiperidin-3-yl)-1,3-dioxoisoindolin-4-yl)amino)ethoxy)ethoxy)ethyl) propanamide], the “suppression” value was “effective in suppressing both AKT protein level and AKT activity”.

With `C[C@@H]1C[C@@H](O)c2ncnc(N3CCN(C(=O)[C@H](CNCCC(=O)NCCCCCCCNc4cccc5c4C(=O)N(C4CCC(=O)NC4=O)C5=O)c4ccc(Cl)cc4)CC3)c21` (stereo partly drawn) [XF048-5, 3-(((S)-2-(4-chlorophenyl)-3-(4-((5R,7R)-7-hydroxy-5-methyl-6,7-dihydro-5H-cyclopenta[d]pyrimidin-4-yl)piperazin-1-yl)-3-oxopropyl)amino)-N-(7-((2-(2,6-dioxopiperidin-3-yl)-1,3-dioxoisoindolin-4-yl)amino)heptyl)propanamide], the “suppression” value is “effective in suppressing both AKT protein level and AKT activity”.

In the case of `C[C@@H]1C[C@@H](O)c2ncnc(N3CCN(C(=O)[C@H](CNCCC(=O)NCCOCCOCCOCCNc4cccc5c4C(=O)N(C4CCC(=O)NC4=O)C5=O)c4ccc(Cl)cc4)CC3)c21` (stereo partly drawn) [XF048-8, 3-(((S)-2-(4-chlorophenyl)-3-(4-((5R,7R)-7-hydroxy-5-methyl-6,7-dihydro-5H-cyclopenta[d]pyrimidin-4-yl)piperazin-1-yl)-3-oxopropyl)amino)-N-(2-(2-(2-(2-((2-(2,6-dioxopiperidin-3-yl)-1,3-dioxoisoindolin-4-yl)amino)ethoxy)ethoxy)ethoxy)ethyl)propanamide], the “suppression” value is “effective in suppressing both AKT protein level and AKT activity”.

Turning to `Cc1ncsc1-c1ccc(CNC(=O)[C@@H]2C[C@@H](O)CN2C(=O)[C@@H](NC(=O)COCCOCC(=O)N2CCN(CC[C@H](NC(=O)C3(N)CCN(c4ncnc5[nH]ccc45)CC3)c3ccc(Cl)cc3)CC2)C(C)(C)C)cc1` [XF050-7, 4-amino-N-((S)-1-(4-chlorophenyl)-3-(4-(2-(2-(2-(((S)-1-((2S,4R)-4-hydroxy-2-((4-(4-methylthiazol-5-yl)benzyl)carbamoyl)pyrrolidin-1-yl)-3,3-dimethyl-1-oxobutan-2-yl)amino)-2-oxoethoxy)ethoxy)acetyl)piperazin-1-yl)propyl)-1-(7H-pyrrolo[2,3-d]pyrimidin-4-yl)piperidine-4-carboxamide], the “suppression” value was “effective in suppressing both AKT protein level and AKT activity”.

As to `C[C@@H]1C[C@@H](O)c2ncnc(N3CCN(C(=O)[C@H](CNCCNC(=O)CCOCCOCCOCCOCCNc4cccc5c4C(=O)N(C4CCC(=O)NC4=O)C5=O)c4ccc(Cl)cc4)CC3)c21` (stereo partly drawn) [XF048-3, N-(2-(((S)-2-(4-chlorophenyl)-3-(4-((5R,7R)-7-hydroxy-5-methyl-6,7-dihydro-5H-cyclopenta[d]pyrimidin-4-yl)piperazin-1-yl)-3-oxopropyl)amino)ethyl)-1-((2-(2,6-dioxopiperidin-3-yl)-1,3-dioxoisoindolin-4-yl)amino)-3,6,9,12-tetraoxapentadecan-15-amide], the “suppression” value is “effective in suppressing both AKT protein level and AKT activity”.

Turning to `C[C@@H]1C[C@@H](O)c2ncnc(N3CCN(C(=O)[C@H](CNCCNC(=O)CCOCCOCCOCCNc4cccc5c4C(=O)N(C4CCC(=O)NC4=O)C5=O)c4ccc(Cl)cc4)CC3)c21` (stereo partly drawn) [XF048-2, N-(2-(((S)-2-(4-chlorophenyl)-3-(4-((5R,7R)-7-hydroxy-5-methyl-6,7-dihydro-5H-cyclopenta[d]pyrimidin-4-yl)piperazin-1-yl)-3-oxopropyl)amino)ethyl)-3-(2-(2-(2-((2-(2,6-dioxopiperidin-3-yl)-1,3-dioxoisoindolin-4-yl)amino)ethoxy)ethoxy)ethoxy)propanamide], the “suppression” value was “effective in suppressing both AKT protein level and AKT activity”.

With `NC1(C(=O)N[C@@H](CCN2CCN(C(=O)CCOCCOCCOCCOCCOCCOCCOCCOCCOCCNc3cccc4c3C(=O)N(C3CCC(=O)NC3=O)C4=O)CC2)c2ccc(Cl)cc2)CCN(c2ncnc3[nH]ccc23)CC1` (stereo partly drawn) [XF056-35, 4-amino-N-((1S)-1-(4-chlorophenyl)-3-(4-(1-((2-(2,6-dioxopiperidin-3-yl)-1,3-dioxoisoindolin-4-yl)amino)-3,6,9,12,15,18,21,24,27-nonaoxatriacontan-30-oyl)piperazin-1-yl)propyl)-1-(7H-pyrrolo[2,3-d]pyrimidin-4-yl)piperidine-4-carboxamide], the “suppression” value is “effective in suppressing both AKT protein level and AKT activity”.
